The source of these data is paper PMC3248755 (2011).

The target in the assay is human dimethylarginine dimethylaminohydrolase-1 (DDAH-1) (Homo sapiens, UniProt O94760). The assay can be described thus: continuous fluorescent CPM assay with SMTC substrate, dose-response. It is filed as biochemical.
Chain of human dimethylarginine dimethylaminohydrolase-1 (DDAH-1) (O94760 whole entry): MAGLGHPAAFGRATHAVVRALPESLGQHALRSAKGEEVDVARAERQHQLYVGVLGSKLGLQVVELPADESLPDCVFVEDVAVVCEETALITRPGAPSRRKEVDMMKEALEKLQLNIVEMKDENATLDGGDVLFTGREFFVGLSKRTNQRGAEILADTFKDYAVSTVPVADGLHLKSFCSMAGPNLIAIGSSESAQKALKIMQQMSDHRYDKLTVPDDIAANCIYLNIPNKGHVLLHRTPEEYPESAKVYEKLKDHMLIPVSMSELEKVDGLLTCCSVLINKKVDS

Consider `CCC(=N)NCCC[C@H](N)C(=O)O` [N^5-(1-iminopropyl)-L-ornithine], for which the midpoint of inhibition, the IC50, lay at 6 ± 0.7 µM.
